PMC5218480 (PLoS ONE, 2017)

System: MV-4-11 cells
Test: Gene expression microarray analysis (Affymetrix PrimeView) and GSEA
Assay type: cell-based, human
Parameters: RFU PODN (11730768_x_at) / Fold change /veh PODN (11730768_x_at) / RFU LINC00158 (11744669_a_at) / Fold change /veh LINC00158 (11744669_a_at) / RFU DUSP10 (11751237_a_at) / Fold change /veh DUSP10 (11751237_a_at) / RFU ID3 (11757404_x_at) / Fold change /veh ID3 (11757404_x_at) / RFU PLEKHG5 (11737974_s_at) / Fold change /veh PLEKHG5 (11737974_s_at) / RFU LRRC4B (11730491_at) / Fold change /veh LRRC4B (11730491_at) / RFU GIMAP4 (11747438_a_at) / Fold change /veh GIMAP4 (11747438_a_at) / RFU KRT8 (11758183_x_at) / Fold change /veh KRT8 (11758183_x_at) / RFU CNN1 (11734310_a_at) / Fold change /veh CNN1 (11734310_a_at) / RFU VPS37D (11726825_at) / Fold change /veh VPS37D (11726825_at) / RFU C10orf10 (11716522_x_at) / Fold change /veh C10orf10 (11716522_x_at) / RFU KIR2DL2 /// KIR2DL4 /// KIR2DL5A /// KIR2DL5B /// KIR2DS1 /// KIR2DS2 /// KIR2DS3 /// KIR2DS4 /// KIR3DL3 /// KIR3DL3 /// KIR3DS1 (11738374_at) / Fold change /veh KIR2DL2 /// KIR2DL4 /// KIR2DL5A /// KIR2DL5B /// KIR2DS1 /// KIR2DS2 /// KIR2DS3 /// KIR2DS4 /// KIR3DL3 /// KIR3DL3 /// KIR3DS1 (11738374_at) / RFU C1QL1 (11718748_at) / Fold change /veh C1QL1 (11718748_at) / RFU TMPRSS4 (11747572_a_at) / Fold change /veh TMPRSS4 (11747572_a_at) / RFU HAMP (11756126_x_at) / Fold change /veh HAMP (11756126_x_at) / RFU RNFT2 (11725882_a_at) / Fold change /veh RNFT2 (11725882_a_at) / RFU NR4A2 (11747474_a_at) / Fold change /veh NR4A2 (11747474_a_at) / RFU ABCC12 (11746883_a_at) / Fold change /veh ABCC12 (11746883_a_at) / RFU TMEM136 (11760407_x_at) / Fold change /veh TMEM136 (11760407_x_at) / RFU CLDN22 /// WWC2 (11732394_at) / Fold change /veh CLDN22 /// WWC2 (11732394_at) / RFU HLA-DPB1 (11760878_x_at) / Fold change /veh HLA-DPB1 (11760878_x_at) / RFU SPINT1 (11716480_a_at) / Fold change /veh SPINT1 (11716480_a_at) / RFU GAP43 (11754022_s_at) / Fold change /veh GAP43 (11754022_s_at) / RFU A4GNT (11735810_at) / Fold change /veh A4GNT (11735810_at) / RFU PRB3 (11715151_x_at) / Fold change /veh PRB3 (11715151_x_at) / RFU TUBB4B (11761932_at) / Fold change /veh TUBB4B (11761932_at) / RFU CAPN14 (11732068_a_at) / Fold change /veh CAPN14 (11732068_a_at) / RFU TMCC2 (11721928_a_at) / Fold change /veh TMCC2 (11721928_a_at) / RFU IRGQ (11745062_a_at) / Fold change /veh IRGQ (11745062_a_at) / RFU FAM174B (11720279_a_at) / Fold change /veh FAM174B (11720279_a_at) / RFU TMPRSS4 (11748680_a_at) / Fold change /veh TMPRSS4 (11748680_a_at) / RFU FAM212B (11763350_a_at) / Fold change /veh FAM212B (11763350_a_at) / RFU PLEKHG5 (11743358_a_at) / Fold change /veh PLEKHG5 (11743358_a_at) / RFU ZSCAN30 (11745921_a_at) / Fold change /veh ZSCAN30 (11745921_a_at) / RFU CMKLR1 (11741424_a_at) / Fold change /veh CMKLR1 (11741424_a_at) / RFU LOC101060620 /// MAPK8IP1 (11723275_at) / Fold change /veh LOC101060620 /// MAPK8IP1 (11723275_at) / RFU SPTSSB (11747773_x_at) / Fold change /veh SPTSSB (11747773_x_at) / RFU PRSS12 (11739890_at) / Fold change /veh PRSS12 (11739890_at) / RFU BIN1 (11741810_x_at) / Fold change /veh BIN1 (11741810_x_at) / RFU WNT11 (11732464_a_at) / Fold change /veh WNT11 (11732464_a_at) / RFU C10orf10 (11716521_a_at) / Fold change /veh C10orf10 (11716521_a_at) / RFU C5orf56 (11738089_at) / Fold change /veh C5orf56 (11738089_at) / RFU CYB561 (11721691_x_at) / Fold change /veh CYB561 (11721691_x_at) / RFU ANKRD19P (11752326_a_at) / Fold change /veh ANKRD19P (11752326_a_at) / RFU OR2T12 /// OR2T33 /// OR2T8 (11738714_s_at) / Fold change /veh OR2T12 /// OR2T33 /// OR2T8 (11738714_s_at) / RFU VCAN (11748164_a_at) / Fold change /veh VCAN (11748164_a_at) / RFU JSRP1 (11732532_at) / Fold change /veh JSRP1 (11732532_at) / RFU KRTAP10-11 (11738290_x_at) / Fold change /veh KRTAP10-11 (11738290_x_at) / RFU MYO3A (11730013_a_at) / Fold change /veh MYO3A (11730013_a_at) / RFU EBF3 (11725865_a_at) / Fold change /veh EBF3 (11725865_a_at) / RFU CAMK2N1 (11719241_x_at) / Fold change /veh CAMK2N1 (11719241_x_at) / RFU C5orf56 (11738088_a_at) / Fold change /veh C5orf56 (11738088_a_at) / RFU OLFML3 (11715873_a_at) / Fold change /veh OLFML3 (11715873_a_at) / RFU LOC100653217 /// NTM (11731650_a_at) / Fold change /veh LOC100653217 /// NTM (11731650_a_at) / RFU MAPK11 (11762145_a_at) / Fold change /veh MAPK11 (11762145_a_at) / RFU FIZ1 (11724087_x_at) / Fold change /veh FIZ1 (11724087_x_at) / RFU OASL (11726364_x_at) / Fold change /veh OASL (11726364_x_at) / RFU SOX15 (11748057_x_at) / Fold change /veh SOX15 (11748057_x_at) / RFU CD79A (11719716_a_at) / Fold change /veh CD79A (11719716_a_at) / RFU HIST1H1D (11736915_at) / Fold change /veh HIST1H1D (11736915_at) / RFU CASKIN2 (11723855_a_at) / Fold change /veh CASKIN2 (11723855_a_at) / RFU LOC730098 (11760151_x_at) / Fold change /veh LOC730098 (11760151_x_at) / RFU OR4N2 (11742367_at) / Fold change /veh OR4N2 (11742367_at) / RFU PRRT2 (11749266_a_at) / Fold change /veh PRRT2 (11749266_a_at) / RFU SNX32 (11753110_a_at) / Fold change /veh SNX32 (11753110_a_at) / RFU CDHR5 (11726645_a_at) / Fold change /veh CDHR5 (11726645_a_at) / RFU RCAN1 (11760418_a_at) / Fold change /veh RCAN1 (11760418_a_at) / RFU FAM167A (11723789_a_at) / Fold change /veh FAM167A (11723789_a_at) / RFU FAM26E (11764081_at) / Fold change /veh FAM26E (11764081_at) / RFU ISYNA1 (11749810_s_at) / Fold change /veh ISYNA1 (11749810_s_at) / RFU ACY1 (11761880_at) / Fold change /veh ACY1 (11761880_at) / RFU 11764098_at / Fold change /veh 11764098_at / RFU SAMD14 (11745864_x_at) / Fold change /veh SAMD14 (11745864_x_at) / RFU NPB (11741838_a_at) / Fold change /veh NPB (11741838_a_at) / RFU TMPRSS6 (11731388_a_at) / Fold change /veh TMPRSS6 (11731388_a_at) / RFU KRTAP10-2 (11738614_at) / Fold change /veh KRTAP10-2 (11738614_at) / RFU ARHGAP8 /// PRR5-ARHGAP8 (11727945_x_at) / Fold change /veh ARHGAP8 /// PRR5-ARHGAP8 (11727945_x_at) / RFU KRTAP5-7 /// NADSYN1 (11734609_at) / Fold change /veh KRTAP5-7 /// NADSYN1 (11734609_at) / RFU RASL12 (11751679_a_at) / Fold change /veh RASL12 (11751679_a_at) / RFU CDKN2B (11736163_a_at) / Fold change /veh CDKN2B (11736163_a_at) / RFU PRF1 (11729649_at) / Fold change /veh PRF1 (11729649_at) / RFU, ZNF638 /// ZNF638-IT1 / Fold change vs veh, ZNF638 /// ZNF638-IT1 / RFU, PANK3 / Fold change vs veh, PANK3 / RFU, SH3YL1 / Fold change vs veh, SH3YL1 / RFU, ZEB2 / Fold change vs veh, ZEB2 / RFU, NRIP1 / Fold change vs veh, NRIP1 / RFU, PTTG1IP / Fold change vs veh, PTTG1IP / RFU, CAPN2 / Fold change vs veh, CAPN2 / RFU, MED14 / Fold change vs veh, MED14 / RFU, SNORA58 / Fold change vs veh, SNORA58 / RFU, C1orf63 / Fold change vs veh, C1orf63 / RFU, LRRFIP1 / Fold change vs veh, LRRFIP1 / RFU, NDUFAF7 / Fold change vs veh, NDUFAF7 / RFU, SLC12A2 / Fold change vs veh, SLC12A2 / RFU, IBTK / Fold change vs veh, IBTK / RFU, ESF1 / Fold change vs veh, ESF1 / Fold change vs veh, TMEM50B / RFU, TAOK1 / Fold change vs veh, TAOK1 / RFU, ACBD3 / Fold change vs veh, ACBD3 / RFU, TMA16 / Fold change vs veh, TMA16 / RFU, RWDD3 / Fold change vs veh, RWDD3 / RFU, BCAT1 / Fold change vs veh, BCAT1 / RFU, EDEM3 / Fold change vs veh, EDEM3 / RFU, TMEM33 / Fold change vs veh, TMEM33 / RFU, WDR75 / Fold change vs veh, WDR75 / RFU, AHCTF1 / Fold change vs veh, AHCTF1 / RFU, TFRC / Fold change vs veh, TFRC / RFU, ZDHHC17 / Fold change vs veh, ZDHHC17 / RFU, NOM1 / Fold change vs veh, NOM1 / RFU, ARL8B / Fold change vs veh, ARL8B / RFU, ZBTB11 / Fold change vs veh, ZBTB11 / RFU, TAMM41 / Fold change vs veh, TAMM41 / RFU, KIAA1704 /// LOC100996395 / Fold change vs veh, KIAA1704 /// LOC100996395 / RFU, ING1 / Fold change vs veh, ING1 / RFU, TRMT61B / Fold change vs veh, TRMT61B / RFU, FUBP3 / Fold change vs veh, FUBP3 / RFU, TP53 / Fold change vs veh, TP53 / RFU, TNKS2 / Fold change vs veh, TNKS2 / RFU, ZFP14 / Fold change vs veh, ZFP14 / RFU, ACTR2 / Fold change vs veh, ACTR2 / RFU, PPP3R1 / Fold change vs veh, PPP3R1 / RFU, PIK3R1 / Fold change vs veh, PIK3R1 / RFU, HNRNPA1 / Fold change vs veh, HNRNPA1 / RFU, RNF170 / Fold change vs veh, RNF170 / RFU, ZNF28 / Fold change vs veh, ZNF28 / RFU, RNGTT / Fold change vs veh, RNGTT / RFU, OGT / Fold change vs veh, OGT / RFU, BRD1 / Fold change vs veh, BRD1 / RFU, MARS / Fold change vs veh, MARS / RFU, ZNF655 / Fold change vs veh, ZNF655 / RFU, FAHD1 / Fold change vs veh, FAHD1 / RFU, BDP1 / Fold change vs veh, BDP1 / RFU, LRRCC1 / Fold change vs veh, LRRCC1 / RFU, ARID1A / Fold change vs veh, ARID1A / RFU, ZNF146 / Fold change vs veh, ZNF146 / RFU, ZNF330 / Fold change vs veh, ZNF330 / RFU, GPN3 / Fold change vs veh, GPN3 / RFU, C9orf123 / Fold change vs veh, C9orf123 / RFU, N4BP2L2 / Fold change vs veh, N4BP2L2 / RFU, ARFIP1 / Fold change vs veh, ARFIP1 / RFU, FAM179B / Fold change vs veh, FAM179B / RFU, BCL10 / Fold change vs veh, BCL10 / RFU, UHRF1BP1L / Fold change vs veh, UHRF1BP1L / RFU, BET1 / Fold change vs veh, BET1 / RFU, CNOT2 / Fold change vs veh, CNOT2 / RFU, ZNF268 / Fold change vs veh, ZNF268 / Fold change vs veh, ZNF507 / RFU, DGCR2 / Fold change vs veh, DGCR2 / RFU, WDSUB1 / Fold change vs veh, WDSUB1 / Fold change vs veh, HSP90B1 /// MIR3652 / RFU, ADSS / Fold change vs veh, ADSS / RFU, GK / Fold change vs veh, GK / RFU, ZNF148 / Fold change vs veh, ZNF148 / RFU, TAF9 / Fold change vs veh, TAF9 / RFU, SLC1A5 / Fold change vs veh, SLC1A5 / RFU, SLMO2 / Fold change vs veh, SLMO2 / RFU, ABCC4 / Fold change vs veh, ABCC4 / RFU, LOC101060439 /// RAP1B / Fold change vs veh, LOC101060439 /// RAP1B / RFU, RFX7 / Fold change vs veh, RFX7 / RFU, GTPBP10 / Fold change vs veh, GTPBP10 / RFU, CNEP1R1 / Fold change vs veh, CNEP1R1 / RFU, BIVM-ERCC5 /// ERCC5 / Fold change vs veh, BIVM-ERCC5 /// ERCC5 / RFU, ILF3 / Fold change vs veh, ILF3 / RFU 11762660_at / Fold change /veh 11762660_at / RFU VCAN (11757783_s_at) / Fold change /veh VCAN (11757783_s_at) / RFU DDX43 (11728927_at) / Fold change /veh DDX43 (11728927_at) / RFU KRT8 (11758188_x_at) / Fold change /veh KRT8 (11758188_x_at) / RFU NKD1 (11759106_at) / Fold change /veh NKD1 (11759106_at) / RFU SRD5A1 (11742802_a_at) / Fold change /veh SRD5A1 (11742802_a_at) / RFU TPSAB1 /// TPSB2 (11721975_s_at) / Fold change /veh TPSAB1 /// TPSB2 (11721975_s_at) / RFU GSTM3 (11746129_a_at) / Fold change /veh GSTM3 (11746129_a_at) / RFU IL23R (11737362_x_at) / Fold change /veh IL23R (11737362_x_at) / RFU TMEM51 (11727254_a_at) / Fold change /veh TMEM51 (11727254_a_at) / RFU PIWIL2 (11732686_x_at) / Fold change /veh PIWIL2 (11732686_x_at) / RFU ORM1 (11744905_x_at) / Fold change /veh ORM1 (11744905_x_at) / RFU CCDC152 (11743942_at) / Fold change /veh CCDC152 (11743942_at) / RFU ECM1 (11717891_a_at) / Fold change /veh ECM1 (11717891_a_at) / RFU IL23R (11748794_a_at) / Fold change /veh IL23R (11748794_a_at) / RFU TNFAIP8L3 (11732012_x_at) / Fold change /veh TNFAIP8L3 (11732012_x_at) / RFU MBOAT4 (11741988_at) / Fold change /veh MBOAT4 (11741988_at) / RFU 11764193_at / Fold change /veh 11764193_at / RFU TMEM53 (11763286_at) / Fold change /veh TMEM53 (11763286_at) / RFU MAGEB2 (11727129_at) / Fold change /veh MAGEB2 (11727129_at) / RFU TMEM200A (11744735_a_at) / Fold change /veh TMEM200A (11744735_a_at) / RFU CCDC152 (11751479_a_at) / Fold change /veh CCDC152 (11751479_a_at) / RFU FAM211A (11726209_a_at) / Fold change /veh FAM211A (11726209_a_at) / RFU RGS16 (11746705_a_at) / Fold change /veh RGS16 (11746705_a_at) / RFU VCAN (11755009_s_at) / Fold change /veh VCAN (11755009_s_at) / RFU RHOB (11743442_s_at) / Fold change /veh RHOB (11743442_s_at) / RFU RGS16 (11720943_a_at) / Fold change /veh RGS16 (11720943_a_at) / RFU RGS16 (11720944_at) / Fold change /veh RGS16 (11720944_at) / RFU, VPS4B / Fold change vs veh, VPS4B / RFU, CREB1 / Fold change vs veh, CREB1 / RFU, DNAJC13 / Fold change vs veh, DNAJC13 / RFU, GNAQ / Fold change vs veh, GNAQ / RFU, CDK5R1 / Fold change vs veh, CDK5R1 / RFU, ZRANB3 / Fold change vs veh, ZRANB3 / RFU, CUL4A / Fold change vs veh, CUL4A / RFU, CCNY / Fold change vs veh, CCNY / RFU, UFL1 / Fold change vs veh, UFL1 / RFU, COG3 / Fold change vs veh, COG3 / RFU, DIAPH2 / Fold change vs veh, DIAPH2 / RFU, SKA2 / Fold change vs veh, SKA2 / RFU, AFF3 / Fold change vs veh, AFF3 / RFU, LMF1 / Fold change vs veh, LMF1 / RFU, IPO11 / Fold change vs veh, IPO11 / RFU, DFFB / Fold change vs veh, DFFB / RFU, FOXP1 / Fold change vs veh, FOXP1 / RFU, CARD8 / Fold change vs veh, CARD8 / RFU, STRN3 / Fold change vs veh, STRN3 / RFU, ADK / Fold change vs veh, ADK / RFU, RASSF2 / Fold change vs veh, RASSF2 / RFU, WIPF1 / Fold change vs veh, WIPF1 / RFU, LARP1B / Fold change vs veh, LARP1B / RFU, RASA1 / Fold change vs veh, RASA1 / RFU, RB1 / Fold change vs veh, RB1 / RFU, PPFIA1 / Fold change vs veh, PPFIA1 / RFU, MAT2A / Fold change vs veh, MAT2A / RFU, CCT5 / Fold change vs veh, CCT5 / RFU, WDR92 / Fold change vs veh, WDR92 / RFU, CUX1 / Fold change vs veh, CUX1 / RFU, TTC7A / Fold change vs veh, TTC7A / RFU, TMEM135 / Fold change vs veh, TMEM135 / RFU, DEPTOR / Fold change vs veh, DEPTOR / RFU, CPM / Fold change vs veh, CPM / RFU, DNAJB6 / Fold change vs veh, DNAJB6 / RFU, CACNA2D3 / Fold change vs veh, CACNA2D3 / RFU, DTX4 / Fold change vs veh, DTX4 / RFU, TFCP2 / Fold change vs veh, TFCP2 / RFU, GMCL1 /// GMCL1P1 / Fold change vs veh, GMCL1 /// GMCL1P1 / RFU, AEBP2 / Fold change vs veh, AEBP2 / RFU, SNHG1 /// SNORD22 /// SNORD25 /// SNORD26 /// SNORD27 /// SNORD28 /// SNORD29 /// SNORD31 / Fold change vs veh, SNHG1 /// SNORD22 /// SNORD25 /// SNORD26 /// SNORD27 /// SNORD28 /// SNORD29 /// SNORD31 / Fold change (Aza/veh), C12orf56 (ProbeSet 11735607_a_at) / Fold change (ACY-1035/veh), C12orf56 (ProbeSet 11735607_a_at) / Fold change (Aza/veh), FGFR1OP (ProbeSet 11751329_s_at) / Fold change (ACY-1035/veh), FGFR1OP (ProbeSet 11751329_s_at) / Fold change (Aza/veh), VPS36 (ProbeSet 11739960_a_at) / Fold change (ACY-1035/veh), VPS36 (ProbeSet 11739960_a_at) / RFU SYPL1 (11715823_x_at) / Fold change /veh SYPL1 (11715823_x_at) / RFU IGFBP7 (11715501_s_at) / Fold change /veh IGFBP7 (11715501_s_at) / RFU REEP3 (11722064_at) / Fold change /veh REEP3 (11722064_at) / RFU IGLL1 (11728026_x_at) / Fold change /veh IGLL1 (11728026_x_at): dose or concentration left out as unconfirmed
Details: MV-4-11 cells, 48 hours

Question: How did the “RFU ORM1 (11744905_x_at)” value turn out when `Nc1ncn([C@@H]2O[C@H](CO)[C@@H](O)[C@H]2O)c(=O)n1` [azacitidine] was run?
Answer: Its value is 10.48 RFU.
